Source: patent publication US20210323950A1, “HERBICIDALLY ACTIVE BICYCLIC BENZOYLPYRAZOLES” (Bayer Aktiengesellschaft, priority 2018, published 2021)

System: Cyperus esculentus (CYPES)
Test: Pre-emergence herbicidal action against CYPES
Type: in vivo
Conditions: 320 g/ha, scored visually after about 3 weeks vs untreated controls
Source text: CYPES: Cyperus esculentus 1. Pre-Emergence Herbicidal Action and Crop Plant Compatibility Seeds of monocotyledonous and dicotyledonous weed plants and crop plants are placed in plastic or organic planting pots and covered with soil. The compounds of the invention, formulated in the form of wettable powders (WP) or as emulsion concentrates (EC), are then applied onto the surface of the covering soil as aqueous suspension or emulsion with addition of 0.5% additive at a water application rate of […] (converted). After the treatment, the pots are placed in a greenhouse and kept under good growth conditions for the trial plants. After about 3 weeks, the effect of the preparations is scored visually in comparison with untreated controls as percentages. The tables below show the herbicidal activity of numerous compounds according to the invention against important harmful plants. For example, 100% activity=the plants have died, 0% activity=like control plants.

Cn1ncc(C(=O)c2ccc(C(F)(F)F)c3c2OC[S+]3[O-])c1O (stereo not shown) [Example 1-28] was tested, and the “Pre-emergence action against CYPES” value was 90%.
